Test results: article PMC12561106, “STOP Strategy to Inhibit P. falciparum and S. aureus Growth: Molecular Mechanism Studies on Purposely Designed Hybrids” (Antibiotics, 2025)
Values after ≈ are worked out from the molar mass of the structure shown. Like-named read-outs stand apart in the source and are kept apart here.

Assays:
Format in all cases: cell-based
[1] = tested on: P. falciparum CQ-resistant (CQ-R) W2 strain; assay: antiplasmodial drug susceptibility assay (pLDH), CQ-resistant strain; settings: Plasmodium falciparum; P. falciparum W2, 72 h, pLDH; mean value with standard deviation; read-out: IC50 W2 (CQ-R)
Protocol: (§1) P. falciparum cultures were carried out according to Trager and Jensen with slight modifications. The CQ-sensitive strain D10 and the CQ-resistant strain W2 were maintained at 5% hematocrit (human A-positive erythrocytes) in RPMI 1640 medium (EuroClone S.p.A, Milan, Italy) with the addition of 1% AlbuMax (Invitrogen, San Diego, California, USA), 0.01% hypoxanthine, 20 mM Hepes, and 2 mM glutamine at 37 °C in a standard gas mixture (1% O2, 5% CO2, and 94% N2). […] Drugs were placed in 96-well flat-bottomed microplates, and serial dilutions were made. Asynchronous cultures with parasitaemia of 1–1.5% and 1% final hematocrit were aliquoted into the plates and incubated for 72 h at 37 °C. Parasite growth was determined spectrophotometrically (OD650nm) by measuring the activity of the parasite lactate dehydrogenase (pLDH), as described in a modified version of Makler’s method in control- and drug-treated cultures. The antiplasmodial activity is expressed as 50% inhibitory concentrations (IC50); each IC50 value is the mean ± standard deviation of at least three separate experiments performed in duplicate.

E. coli ATCC 25923 = assay: broth microdilution antimicrobial assay (MIC); settings: Escherichia coli, ATCC25923, 24 h, range 100–0.19 µM
[2] = tested on: clinical isolates of methicillin-resistant S. aureus (MRSA); assay: broth microdilution IC50 on MRSA clinical isolates; settings: Staphylococcus aureus; five MRSA clinical isolates, range of IC50; read-out: IC50 ranges, MRSA (n = 5)
Description: (§2) Reference bacterial strains of Staphylococcus aureus (ATCC 25923) and Escherichia coli (ATCC 25922) were used in this study as Gram-positive and negative models, respectively. These reference strains were purchased from the American Type Culture Collection (ATCC, Manassas, VA, USA). Clinical isolates, identified by MALDI-TOF MS (Bruker Daltonik, GmbH, Bremen, Germany), were profiled for their antibiotic susceptibility by using the Vitek2 semiautomated system (bioMérieux, Craponne, France) and according to EUCAST (Version 12, 2022, http://www.eucast.org (accessed on 1 January 2022)). The bacterial cultures were routinely grown on 5% blood agar plates (Biolife Italiana S.r.l., Milan, Italy) and were freshly used in the antibacterial assays.
(§3) The minimum inhibitory concentrations (MICs) were determined using the microbroth dilution method in microtiter plates according to the Clinical and Laboratory Standards Institute (CLSI) guidelines. In short, microbial inocula were prepared at 0.5 McFarland in PBS and, subsequently, bacterial suspensions were diluted 1:200 in Mueller–Hinton broth (Sigma-Aldrich, St. Louis, MO, USA), while fungal inoculum was diluted 1:20 in RPMI-1640 medium (Gibco®, ThermoFisher Scientific Inc., Waltham, MA, USA), containing glucose 2%, 0.3% levo-glutamine buffered to pH 7.0 with 0.165 M 3-(N-morpholino)propanesulfonic acid (MOPS). A total of 100 µL of these microbial suspensions was introduced into a 96-well microplate and incubated with 100 µL of the compounds, two-fold serially diluted in the range of 100–0.19 µM. Positive controls (microbial suspensions in regular media), negative controls (only compounds), solvent controls (microbial suspensions incubated with DMSO dilutions), and the reference drug controls were included in the tests. The plate was incubated at 37 °C for 24 h, and subsequently the optical density at 630 nm (OD630nm) was spectrophotometrically measured. Experiments were performed in triplicate with three biological replicates. In addition to MIC, IC50 values were measured for the active compounds. The values, corresponding to the concentration of the compound giving rise to an inhibition of growth of 50%, were obtained by interpolation on dose–response curves generated by plotting the percentages of growth inhibition, relative to the positive control (set to 100% of growth), as a function of the tested concentrations (on a logarithm scale). Statistical analysis was carried out by using GraphPad Prism version 9.4.1 for Windows (GraphPad Software, San Diego, CA, USA, www.graphpad.com).

C. albicans ATCC 10231 = assay: broth microdilution antifungal assay (MIC); settings: Candida albicans, ATCC10231, 24 h, range 100–0.19 µM
Protocol: The reference strain of Candida albicans (ATCC 10231) was used in the present study and maintained on Sabouraud Dextrose Agar (Biolife Italiana S.r.l., Milan, Italy) before the antifungal assays.
as §3

S. aureus ATCC 25923 = assay: broth microdilution antimicrobial assay (MIC, IC50); settings: Staphylococcus aureus, ATCC25923; for MIC: broth microdilution, 24 h, range 100–0.19 µM
Description: as §2, §3

[3] = cell viability and proliferation assay (CCK-8/WST8); settings: human, WS1 cells (human-derived fibroblasts, ATCC CRL-1502), mean value with standard deviation
Protocol: WS1 cells (ATCC CRL-1502) were selected as a model system to investigate the effect of PTZ-quinoline hybrid compounds on human-derived fibroblasts. Briefly, cells were cultured in DMEM-High glucose supplemented with 10% fetal bovine serum (FBS) (Carlo Erba Reagents, Milan, Italy), 100 U/mL penicillin, and 100 µg/mL streptomycin at 37 °C with 5% CO2. For experiments, cells were seeded into 96-well plates at 0.7 × 10^4 cells/well, and incubated at 37 °C for 24 h. […] Cell viability was assessed by a WST8-based assay according to the manufacturer’s instructions (CCK-8, Cell Counting Kit-8, Dojindo Molecular Technologies, Rockville, MD, USA). After 48 h of incubation, culture medium was removed from each well, the monolayer was washed with PBS, and 100 µL of fresh medium containing 10 µL of CCK-8 solution was added. Following a 2 h incubation at 37 °C, the OD450nm was read, and data were expressed as the percentage of cell viability relative to the untreated controls. The CC50 was obtained on the corresponding dose–response curves generated as previously reported for IC50 values. Experiments were carried out in triplicate in three biological replicates.

[4] = tested on: P. falciparum CQ-sensitive (CQ-S) D10 strain; assay: antiplasmodial drug susceptibility assay (pLDH), CQ-sensitive strain; settings: Plasmodium falciparum; P. falciparum D10, 72 h, pLDH; mean value with standard deviation; read-out: IC50 D10 (CQ-S)
Protocol: as §1

[5] = S. aureus ATCC 25923, 24 h, OD630, mean value with standard deviation, read-out: IC50 ATCC 25923
[6] = reference strain, range of IC50, read-out: IC50 ranges, ATCC 25923

Row | Compound | IC50 [1] [µM] | MIC (E. coli ATCC 25923) [µM] | IC50 [2] [µM] | MIC (C. albicans ATCC 10231) [µM] | IC50 (S. aureus ATCC 25923; [5]) [µM] | MIC (S. aureus ATCC 25923) [µM] | IC50 (S. aureus ATCC 25923; [6]) [µM] | IC50 [4] [µM] | CC50 at 48 h [3] [µM]
1 | Clc1ccc2c(c1)N(Cc1cn(CCCNc3ccnc4cc(Cl)ccc34)nn1)c1ccccc1S2 [Compound 5b, 7-chloro-N-(3-(4-((2-chloro-10H-phenothiazin-10-yl)methyl)-1H-1,2,3-triazol-1-yl)propyl)quinolin-4-amine] | 0.135 ± 0.017 | > 100 | 6.18 to 10.3 | > 100 | 5.03 ± 1.72 | 6.25 to 12.5 (≈ 3.33 to 6.67 µg/mL) | 3.31 to 6.75 | 0.146 ± 0.006 | 22.1 ± 0.66
2 | Clc1ccc2c(c1)N(Cc1cn(CCNc3ccnc4cc(Cl)ccc34)nn1)c1ccccc1S2 [Compound 4b, 7-chloro-N-(2-(4-((2-chloro-10H-phenothiazin-10-yl)methyl)-1H-1,2,3-triazol-1-yl)ethyl)quinolin-4-amine] | 0.154 ± 0.002 | > 100 | 4.42 to 6.48 | > 100 | 4.86 ± 0.89 | 6.25 to 12.5 (≈ 3.25 to 6.49 µg/mL) | 3.97 to 5.75 | 0.156 ± 0.018 | 12.7 ± 3.51

The next lines start with results.

Row | IC50 [1] [µM] | MIC (E. coli ATCC 25923) [µM] | IC50 [2] [µM] | MIC (C. albicans ATCC 10231) [µM] | IC50 (S. aureus ATCC 25923; [5]) [µM] | MIC (S. aureus ATCC 25923) [µM] | IC50 (S. aureus ATCC 25923; [6]) [µM] | IC50 [4] [µM] | Compound | CC50 at 48 h [3] [µM]
3 | 0.174 ± 0.025 | > 100 | 6.4 to 9.63 | > 100 | 6.73 ± 1.32 | 12.5 (≈ 6.24 µg/mL) | 5.41 to 8.05 | 0.292 ± 0.078 | Clc1ccc2c(NCCCn3cc(CN4c5ccccc5Sc5ccccc54)nn3)ccnc2c1 [Compound 5a, N-(3-(4-((10H-phenothiazin-10-yl)methyl)-1H-1,2,3-triazol-1-yl)propyl)-7-chloroquinolin-4-amine] | 11.8 ± 0.14
4 | 0.2 ± 0.03 | > 100 | 7.75 to 8.98 | > 100 | 7.49 ± 0.15 | 12.5 (≈ 6.06 µg/mL) | 7.34 to 7.64 | 0.142 ± 0.02 | Clc1ccc2c(NCCn3cc(CN4c5ccccc5Sc5ccccc54)nn3)ccnc2c1 [Compound 4a, N-(2-(4-((10H-phenothiazin-10-yl)methyl)-1H-1,2,3-triazol-1-yl)ethyl)-7-chloroquinolin-4-amine] | 17.9 ± 3.23
5 | 0.377 ± 0.066 | > 100 |  | > 100 |  | > 100 |  | 0.326 ± 0.12 | Clc1ccc2c(NCCCCCn3cc(CN4c5ccccc5Sc5ccccc54)nn3)ccnc2c1 [Compound 6a, N-(5-(4-((10H-phenothiazin-10-yl)methyl)-1H-1,2,3-triazol-1-yl)pentyl)-7-chloroquinolin-4-amine] | 48.3 ± 0.9
